Source: US11753446B2, “Beta-hairpin peptidomimetics” (POLYPHOR AG, priority 2014, dated 2023)
Where a SMILES comes first, the peptide text is derived from it. Bridges are numbered along the chain shown (N, C = ends). [ ]: non-standard residue; d: D form. Ala(cPent) = N[C@@H](CC1CCCC1)C(=O)O; Tle = CC(C)(C)[C@H](N)C(=O)O; dDab = NCC[C@@H](N)C(=O)O; Orn = NCCC[C@H](N)C(=O)O; Dab = NCC[C@H](N)C(=O)O

Tests used:
[1] = test system: human red blood cells (hRBC); test: Hemolysis: hemolytic activity at 100 μg/mL, 1 h at 37° C.; details: red cells of human, 1 h
Procedure: Lyophilized peptides were weighed on a Microbalance (Mettler MT5) and dissolved in sterile water to a final concentration of 1 mg/mL. Stock solutions were kept at +4° C., light protected.
The peptides were tested for their hemolytic activity against human red blood cells (hRBC). Fresh hRBC were washed three times with phosphate buffered saline (PBS) and centrifuged for 5 min at 3000×g. Compounds (100 μg/mL) were incubated with 20% hRBC (v/v) for 1 h at 37° C. and shaking at 300 rpm. The final erythrocyte concentration was approximately 0.9×10^9 cells/mL. A value of 0% and 100% cell lyses, respectively, was determined by incubation of hRBC in the presence of PBS containing 0.001% acetic acid and 2.5% Triton X-100 in H2O, respectively. The samples were centrifuged, the supernatants were 8-fold diluted in PBS buffer and the optical densities (OD) were measured at 540 nm.
Percent hemolysis was calculated as follows: (OD540peptide/OD540H2O)×100%.

[2] = test system: Klebsiella pneumoniae ATCC 13883; type: cell-based; details: ATCC 13883
Procedure: (§1) Stock solutions were kept at +4° C., light protected.
(§2) The selective antimicrobial activities of the peptides were determined in 96-well plates (Greiner, polystyrene) by the standard NCCLS broth microdilution method (National Committee for Clinical Laboratory Standards 1993. Methods for dilution antimicrobial susceptibility tests for bacteria that grow aerobically, 3rd ed. Approved standard M7-A6; National Committee for Clinical laboratory standards, Wayne, Pa.) with slight modifications. Inocula of the microorganisms were diluted into Mueller-Hinton II (MH, cation adjusted) broth and compared with a 0.5 McFarland standard to give appr. 10^6 colony forming units (CFU)/mL. Aliquots (90 μl) of inoculate were added to 10 μl of MH broth+P-80 (Polysorbate 80, 0.002% final concentration) containing the peptide in serial two-fold dilutions. The following microorganisms were used to determine antibiotic selectivity of the peptides: Escherichia coli ATCC 25922, Klebsiella pneumoniae ATCC 13883 and Acinetobacter baumannii DSM 30008.

[3] = test system: Escherichia coli ATCC 25922; type: cell-based; details: ATCC 25922
Procedure: as §1, §2

[4] = test system: Acinetobacter baumannii DSM 30008; type: cell-based; details: DSM 30008
Procedure: as §1, §2

SMILES	Hemolysis at 100 μg/mL [1]; 100	Klebsiella pneumoniae ATCC 13883 MIC [2]	Escherichia coli ATCC 25922 MIC [3]	Acinetobacter baumannii DSM 30008 MIC [4]	Hemolysis at 100 μg/mL ([1]; 100 μg/mL)
CC(C)C[C@@H]1NC(=O)[C@H](CCN)NC(=O)[C@@H](CCN)NC(=O)[C@H]([C@@H](C)O)NC(=O)[C@@H]2CSSC[C@H](NC1=O)C(=O)N[C@@H](Cc1ccc(O)cc1)C(=O)N[C@@H](CC(N)=O)C(=O)N[C@@H](CCCN)C(=O)N[C@H](CCN)C(=O)N[C@@H](CCN)C(=O)N[C@@H](Cc1c[nH]c3ccccc13)C(=O)N[C@@H](CO)C(=O)N[C@@H](Cc1ccc(O)cc1)C(=O)N2 [Example 7, cyclo(-Leu-Cys-Tyr-Asn-Orn-^DDab-Dab-Trp-Ser-Tyr-Cys-Thr-^DDab-Dab-)] (HELM PEPTIDE1{C.T.[NCC[C@@H](N[*:1])C(=O)[*:2]].[Dab].L.C.Y.N.[Orn].[NCC[C@@H](N[*:1])C(=O)[*:2]].[Dab].W.S.Y}$PEPTIDE1,PEPTIDE1,1:R3-6:R3|PEPTIDE1,PEPTIDE1,1:R1-14:R2$$$V2.0)	1%	1 µg/mL	2 µg/mL	2 µg/mL	–
CC(C)C[C@@H]1NC(=O)[C@H](CCCNC(=N)N)NC(=O)[C@H]2CCCN2C(=O)[C@H](C(C)C)NC(=O)[C@@H]2CSSC[C@H](NC1=O)C(=O)N[C@@H](Cc1ccc(O)cc1)C(=O)N[C@H]1CSSC[C@H](NC(=O)[C@H](Cc3c[nH]c4ccccc34)NC(=O)[C@H](CCN)NC(=O)[C@@H](CCN)NC(=O)[C@H](CCN)NC1=O)C(=O)N[C@@H](Cc1ccc(O)cc1)C(=O)N2 [Example 43, cyclo(-Leu-Cys-Tyr-Cys-Dab-^DDab-Dab-Trp-Cys-Tyr-Cys-Val-^DPro-Arg-)] (HELM PEPTIDE1{C.[Dab].[NCC[C@@H](N[*:1])C(=O)[*:2]].[Dab].W.C.Y.C.V.[dP].R.L.C.Y}$PEPTIDE1,PEPTIDE1,1:R3-6:R3|PEPTIDE1,PEPTIDE1,8:R3-13:R3|PEPTIDE1,PEPTIDE1,1:R1-14:R2$$$V2.0)	–	2 µg/mL	4 µg/mL	1 µg/mL	2%
CC[C@H](C)[C@@H]1NC(=O)[C@H](Cc2ccc(O)cc2)NC(=O)[C@H]2CCCN2C(=O)[C@H](CO)NC(=O)[C@H](C)NC(=O)[C@H](C(C)(C)C)NC(=O)[C@H](CCN)NC(=O)[C@H](Cc2c[nH]c3ccccc23)NC(=O)[C@H](CCN)NC(=O)[C@@H](CCN)NC(=O)[C@H](CCCN)NC(=O)[C@H](CCN)NC(=O)[C@H](Cc2ccc(O)cc2)NC(=O)[C@H]([C@@H](C)O)NC1=O [Example 47, cyclo(-Ile-Thr-Tyr-Dab-Orn-^DDab-Dab-Trp-Dab-tBuGly-Ala-Ser-^DPro-Tyr-)] (HELM PEPTIDE1{A.S.[dP].Y.I.T.Y.[Dab].[Orn].[NCC[C@@H](N[*:1])C(=O)[*:2]].[Dab].W.[Dab].[CC(C)(C)[C@H](N[*:1])C(=O)[*:2]]}$PEPTIDE1,PEPTIDE1,1:R1-14:R2$$$V2.0)	0%	1 µg/mL	1 µg/mL	4 µg/mL	–
CC(C)C[C@@H]1NC(=O)[C@H](CCCNC(=N)N)NC(=O)[C@@H](CCN)NC(=O)[C@H](C(C)C)NC(=O)[C@@H]2CSSC[C@H](NC1=O)C(=O)N[C@@H](Cc1ccc(O)cc1)C(=O)N[C@@H](CO)C(=O)N[C@@H](CCCN)C(=O)N[C@H](CCN)C(=O)N[C@@H](CCN)C(=O)N[C@@H](Cc1c[nH]c3ccccc13)C(=O)N[C@@H](CC(N)=O)C(=O)N[C@@H](Cc1ccc(O)cc1)C(=O)N2 [Example 52, cyclo(-Leu-Cys-Tyr-Ser-Orn-^DDab-Dab-Trp-Asn-Tyr-Cys-Val-^DDab-Arg-)] (HELM PEPTIDE1{C.V.[NCC[C@@H](N[*:1])C(=O)[*:2]].R.L.C.Y.S.[Orn].[NCC[C@@H](N[*:1])C(=O)[*:2]].[Dab].W.N.Y}$PEPTIDE1,PEPTIDE1,1:R3-6:R3|PEPTIDE1,PEPTIDE1,1:R1-14:R2$$$V2.0)	1%	1.5 µg/mL	0.75 µg/mL	1.25 µg/mL	–
CC(C)[C@@H]1NC(=O)[C@@H]2CSSC[C@H](NC(=O)[C@H](CC3CCCC3)NC(=O)[C@H](CCCNC(=N)N)NC(=O)[C@@H](CCN)NC1=O)C(=O)N[C@@H](Cc1ccc(O)cc1)C(=O)N[C@@H](CC(N)=O)C(=O)N[C@@H](CCCN)C(=O)N[C@H](CCN)C(=O)N[C@@H](CCN)C(=O)N[C@@H](Cc1c[nH]c3ccccc13)C(=O)N[C@@H](CO)C(=O)N[C@@H](Cc1ccc(O)cc1)C(=O)N2 [Example 58, cyclo(-Cpa-Cys-Tyr-Asn-Orn-^DDab-Dab-Trp-Ser-Tyr-Cys-Val-^DDab-Arg-)] (cyclo([Ala(cPent)]CYN[Orn][dDab][Dab]WSYCV[dDab]R); disulfide 2-11)	3%	0.75 µg/mL	0.5 µg/mL	0.625 µg/mL	–
CC(C)C[C@@H]1NC(=O)[C@H](CCCNC(=N)N)NC(=O)[C@@H](CCN)NC(=O)[C@H](C(C)C)NC(=O)[C@@H]2CSSC[C@H](NC1=O)C(=O)N[C@@H](Cc1ccc(O)cc1)C(=O)N[C@@H](CC(N)=O)C(=O)N[C@@H](CCCN)C(=O)N[C@H](CCN)C(=O)N[C@@H](CCN)C(=O)N[C@@H](Cc1c[nH]c3ccccc13)C(=O)N[C@@H](CC(N)=O)C(=O)N[C@@H](Cc1ccc(O)cc1)C(=O)N2 [Example 53, cyclo(-Leu-Cys-Tyr-Asn-Orn-^DDab-Dab-Trp-Asn-Tyr-Cys-Val-^DDab-Arg-)] (HELM PEPTIDE1{C.V.[NCC[C@@H](N[*:1])C(=O)[*:2]].R.L.C.Y.N.[Orn].[NCC[C@@H](N[*:1])C(=O)[*:2]].[Dab].W.N.Y}$PEPTIDE1,PEPTIDE1,1:R3-6:R3|PEPTIDE1,PEPTIDE1,1:R1-14:R2$$$V2.0)	1%	1 µg/mL	1 µg/mL	1.5 µg/mL	–
CC[C@H](C)[C@@H]1NC(=O)[C@H](CCCNC(=N)N)NC(=O)[C@@H](CCN)NC(=O)[C@H](CO)NC(=O)[C@@H]2CSSC[C@H](NC1=O)C(=O)N[C@@H](Cc1ccc(O)cc1)C(=O)N[C@@H](CCN)C(=O)N[C@@H](CCCN)C(=O)N[C@H](CCN)C(=O)N[C@@H](CCN)C(=O)N[C@@H](Cc1c[nH]c3ccccc13)C(=O)N[C@@H](CCN)C(=O)N[C@@H](C(C)(C)C)C(=O)N2 [Example 12, cyclo(-Ile-Cys-Tyr-Dab-Orn-^DDab-Dab-Trp-Dab-tBuGly-Cys-Ser-^DDab-Arg-)] (cyclo(CS[dDab]RICY[Dab][Orn][dDab][Dab]W[Dab][Tle]); disulfide 1-6)	1%	1 µg/mL	0.5 µg/mL	1 µg/mL	–
CC(C)C[C@@H]1NC(=O)[C@H](CCCNC(=N)N)NC(=O)[C@@H](CCN)NC(=O)[C@H]([C@@H](C)O)NC(=O)[C@@H]2CSSC[C@H](NC1=O)C(=O)N[C@@H](Cc1ccc(O)cc1)C(=O)N[C@@H](CC(N)=O)C(=O)N[C@@H](CCCN)C(=O)N[C@H](CCN)C(=O)N[C@@H](CCN)C(=O)N[C@@H](Cc1c[nH]c3ccccc13)C(=O)N[C@@H](CO)C(=O)N[C@@H](Cc1ccc(O)cc1)C(=O)N2 [Example 74, cyclo(-Leu-Cys-Tyr-Asn-Orn-^DDab-Dab-Trp-Ser-Tyr-Cys-Thr-^DDab-Arg-)] (HELM PEPTIDE1{C.T.[NCC[C@@H](N[*:1])C(=O)[*:2]].R.L.C.Y.N.[Orn].[NCC[C@@H](N[*:1])C(=O)[*:2]].[Dab].W.S.Y}$PEPTIDE1,PEPTIDE1,1:R3-6:R3|PEPTIDE1,PEPTIDE1,1:R1-14:R2$$$V2.0)	1%	1 µg/mL	4 µg/mL	1.5 µg/mL	–
CC(C)C[C@@H]1NC(=O)[C@H](CCCNC(=N)N)NC(=O)[C@@H](C)NC(=O)[C@H](C(C)C)NC(=O)[C@@H]2CSSC[C@H](NC1=O)C(=O)N[C@@H](Cc1ccc(O)cc1)C(=O)N[C@@H](CC(N)=O)C(=O)N[C@@H](CCCN)C(=O)N[C@H](CCN)C(=O)N[C@@H](CCN)C(=O)N[C@@H](Cc1c[nH]c3ccccc13)C(=O)N[C@@H](CCN)C(=O)N[C@@H](Cc1ccc(O)cc1)C(=O)N2 [Example 79, cyclo(-Leu-Cys-Tyr-Asn-Orn-^DDab-Dab-Trp-Dab-Tyr-Cys-Val-^DAla-Arg-)] (HELM PEPTIDE1{C.V.[dA].R.L.C.Y.N.[Orn].[NCC[C@@H](N[*:1])C(=O)[*:2]].[Dab].W.[Dab].Y}$PEPTIDE1,PEPTIDE1,1:R3-6:R3|PEPTIDE1,PEPTIDE1,1:R1-14:R2$$$V2.0)	1%	1 µg/mL	1 µg/mL	1.5 µg/mL	–
